Assay results: patent US20260258035A1, “FIVE-MEMBERED AND SIX-MEMBERED NITROGEN-CONTAINING COMPOUND, AND INTERMEDIATE, PREPARATION METHOD AND USE THEREOF” (HANGZHOU SYNRX THERAPEUTICS BIOMEDICAL TECHNOLOGY CO., LTD., priority 2022, published 2026)
In brackets after ≈: the same amount, converted by molar mass. Where two headings read alike, the source gives them in different places.

Legend:
[1] = tested on: Human breast squamous carcinoma cells HCC1806; experiment: Cell function assay (In-Cell Western, PAR/pADPr after MMS); type: cell-based; conditions: read-out: IC50 (nM) in cell function assay
Summary of the method: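 HCC1806 cells adhered 24 h at 37 °C, 5% CO2, then were pretreated 1 h with compound (30000 nM down to 1 nM, plus 0 nM) or DMSO. MMS was then added at 0.5 mM final for 1 h before In-Cell Western detection of PAR/pADPr.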

[2] = molecular target: PARG (Homo sapiens, UniProt Q86W56); experiment: Biochemical assay (PARG, TFMU-ADPr substrate)
Chain of PARG (Q86W56 whole entry): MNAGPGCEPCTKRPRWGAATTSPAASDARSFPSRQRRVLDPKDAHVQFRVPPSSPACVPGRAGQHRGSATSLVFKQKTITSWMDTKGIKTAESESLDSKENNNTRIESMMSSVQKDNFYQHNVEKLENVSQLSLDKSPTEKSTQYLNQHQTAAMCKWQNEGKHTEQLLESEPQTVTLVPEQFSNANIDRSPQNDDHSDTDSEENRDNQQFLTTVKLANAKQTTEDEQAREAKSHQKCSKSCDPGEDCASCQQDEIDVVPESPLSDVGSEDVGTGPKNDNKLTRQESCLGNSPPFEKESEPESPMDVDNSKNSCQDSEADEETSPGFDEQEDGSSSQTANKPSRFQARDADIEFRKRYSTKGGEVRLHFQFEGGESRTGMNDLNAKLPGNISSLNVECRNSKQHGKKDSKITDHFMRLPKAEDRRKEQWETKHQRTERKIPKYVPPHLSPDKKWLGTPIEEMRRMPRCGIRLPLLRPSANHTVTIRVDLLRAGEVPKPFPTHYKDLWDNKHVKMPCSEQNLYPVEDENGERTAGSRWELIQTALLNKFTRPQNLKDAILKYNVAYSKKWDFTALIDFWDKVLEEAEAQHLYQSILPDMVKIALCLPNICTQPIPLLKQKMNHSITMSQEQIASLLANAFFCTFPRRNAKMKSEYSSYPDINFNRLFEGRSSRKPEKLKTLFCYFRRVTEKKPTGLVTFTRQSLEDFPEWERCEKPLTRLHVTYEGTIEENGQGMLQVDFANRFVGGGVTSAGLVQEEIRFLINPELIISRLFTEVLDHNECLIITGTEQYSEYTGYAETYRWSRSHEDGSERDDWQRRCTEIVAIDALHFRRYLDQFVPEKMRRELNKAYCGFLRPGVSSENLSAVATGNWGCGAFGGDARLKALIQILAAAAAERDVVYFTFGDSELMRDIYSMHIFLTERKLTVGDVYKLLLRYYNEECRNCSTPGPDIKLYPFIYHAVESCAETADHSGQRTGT

[3] = Solubility assay (FaSSGF / FaSSIF); type: physicochemical; conditions: kinetic from dmso stock, 2 h at 25° C.
Procedure: 1). Preparation of Solutions:
The FaSSGF solution was prepared as follows: • a) preparation of FaSSGF buffer: dissolve 2.0 g of NaCl as the raw material in about 0.9 L of purified water; • b) adjustment of the pH of the buffer: adjust the pH of the buffer to 1.6 with 1N HCL, and replenish the buffer with purified water to the volume of 1 L; and • c) preparation of FaSSGF solution by addition of FaSSGF powder: add 0.06 g of the FaSSGF powder to about 0.5 L of the buffer, stir until the powder was completely dissolved, and make up for the volume (1 L) with the buffer.
The FaSSIF solution was prepared as follows: • a) preparation of FaSSIF buffer: dissolve 0.42 g of NaOH, 3.44 g of anhydrous NaH2PO4, and 6.19 g of NaCl as raw materials in about 0.9 L of purified water; • b) adjustment the pH of the buffer: adjust the pH of the buffer to 6.5 with 1 N NaOH or 1 N HCL, and replenish the buffer with purified water to the volume of 1 L; and • c) preparation of FaSSIF solution by addition of FaSSIF powder: add 2.24 g of the FaSSIF powder to about 0.5 L of the buffer, stir until the powder was completely dissolved, and make up for the volume (1 L) with the buffer.
2). Preparation of the Solution of Control Compound:
The control compound was weighed and dissolved in DMSO to 10 mM to obtain a stock solution.
3) Preparation of the Solution of Compound to be Tested:
The compound to be tested was formulated into a 10 mM DMSO stock solution.
4) Preparation of Internal Standard Solution:
a) The internal standard was weighed and dissolved in DMSO to 10 mM to obtain an internal standard stock solution (ISTD stock solution).
b) The internal standard stock solution was diluted to 500 nM (Tolbutamide) with an ACN:methano mixture (volume ratio: 1:1) to obtain a quenching solution.
a) The FaSSGF solution at pH 1.6 and the FaSSIF solution at pH 6.5 were pre-warmed; and then, the compound was injected into the buffer.
Once done, the samples were centrifuged at 12,000 rpm for 10 min, and the supernatant was transferred to a new tube. The supernatant was diluted 10-fold and 100-fold with the FaSSGF solution at pH 1.6 or the FaSSIIF solution at pH 6.5. 20 μL of each sample (1×, 10×, 100× and standard curve) was added to 500 μL of the IS solution. The resulting mixture was vortexed vigorously for 1 min and centrifuged at 4,500 rpm for 15 min at 4° C. 150 μL of the supernatant was transferred for LC-MS/MS sample analysis.

[4] = tested on: HCC1806; experiment: Cell viability assay (CellTiter-Glo); type: cell-based, Human; conditions: HCC1806, 7 days, CellTiter-Glo, read-out: IC50 (nM) in cell viability assay
[5] = HCC1806, In-Cell Western, MMS treatment
[6] = HCC1806, compound 1 h then 0.5 mM MMS 1 h, PAR/pADPr antibody, In-Cell Western
[7] = 4 nM PARG, 66.2 uM TFMU-ADPr, 3 min at room temperature
[8] = fassgf or other biorelevant, FaSSGF solution pH 1.6, 100 μM from DMSO stock, read-out: FaSSGF solubility
[9] = FaSSIF solution pH 6.5, 100 μM from DMSO stock, read-out: FaSSIF solubility

IC50 [1, 5] [nM]	IC50 [1, 6] [nM]	IC50 [2, 7] [nM]	IC50 ([2]; PARG, TFMU-ADPr substrate) [nM]	solubility at 2 h [3, 8] [µM]	solubility at 2 h [3, 9] [µM]	IC50 [4] [nM]	IC50 ([4]; Homo sapiens, HCC1806, 168 h) [nM]	SMILES
74	< 100	< 100	2.04	15.9 (≈ 8.23 µg/mL)	24.2 (≈ 12.5 µg/mL)	513	500 to 5000	CC1(O)CCN(c2cc(S(=O)(=O)NC3(CF)CC3)cn3c(-c4nnc(C(F)F)s4)nnc23)CC1 [Example 107, 3-(5-(difluoromethyl)-1,3,4-thiadiazol-2-yl)-N-(1-(fluoromethyl)cyclopropyl)-8-(4-hydroxy-4-methylpiperidin-1-yl)-[1,2,4]triazolo[4,3-a]pyridine-6-sulfonamide]
–	–	–	2.54	38.5 (≈ 23.3 µg/mL)	88.2 (≈ 53.3 µg/mL)	–	759	CC(C)C(=O)N1CCN(c2cc(S(=O)(=O)NC3(C)COC3)cn3c(-c4nnc(C(F)F)s4)nc(Cl)c23)C[C@H]1C [Example 124, (R)-1-chloro-3-(5-(difluoromethyl)-1,3,4-thiadiazol-2-yl)-8-(4-isobutyryl-3-methylpiperazin-1-yl)-N-(3-methyloxetan-3-yl)imidazo[1,5-a]pyridine-6-sulfonamide]
–	–	–	18.2	21.5 (≈ 12.3 µg/mL)	97.2 (≈ 55.6 µg/mL)	–	565	CC1(NS(=O)(=O)c2cc(N3CCN(C(=O)C4CC4)CC3)c3cnc(-c4nnc(C(F)(F)F)s4)n3c2)COC1 [Example 175, 8-(4-(cyclopropanecarbonyl)piperazin-1-yl)-N-(3-methyloxetan-3-yl)-3-(5-(trifluoromethyl)-1,3,4-thiadiazol-2-yl)imidazo[1,5-a]pyridine-6-sulfonamide]

Continued, compound first:

SMILES	IC50 [1, 5] [nM]	IC50 [1, 6] [nM]	IC50 [2, 7] [nM]	IC50 ([2]; PARG, TFMU-ADPr substrate) [nM]	solubility at 2 h [3, 8] [µM]	solubility at 2 h [3, 9] [µM]	IC50 [4] [nM]	IC50 ([4]; Homo sapiens, HCC1806, 168 h) [nM]
CC(C)C(=O)N1CCN(c2cc(S(=O)(=O)NC3(CF)COC3)cn3c(-c4nnc(C(F)F)s4)ncc23)CC1 [Example 60, 3-(5-(difluoromethyl)-1,3,4-thiadiazol-2-yl)-N-(3-(fluoromethyl)oxetan-3-yl)-8-(4-isobutyrylpiperazin-1-yl)imidazo[1,5-a]pyridine-6-sulfonamide]	2.85	> 1000	< 100	0.19	3.83 (≈ 2.2 µg/mL)	10 (≈ 5.74 µg/mL)	438	< 500
C[C@@H]1CN(c2cc(S(=O)(=O)NC3(CF)CC3)cn3c(-c4nnc(C(F)F)s4)nnc23)CCN1C(=O)C1(C)CC1 [Example 120, (R)-3-(5-(difluoromethyl)-1,3,4-thiadiazol-2-yl)-N-(1-(fluoromethyl)cyclopropyl)-8-(3-methyl-4-(1-methylcyclopropane-1-carbonyl)piperazin-1-yl)-[1,2,4]triazolo[4,3-a]pyridine-6-sulfonamide]	2.28	< 100	< 100	1.49	81.8 (≈ 47.8 µg/mL)	140 (≈ 81.9 µg/mL)	–	–
[2H]c1nc(-c2nnc(C(F)F)s2)n2cc(S(=O)(=O)NC3(C)COC3)cc(N3CCN(C(=O)C(C)C)CC3)c12 [Example 159, 3-(5-(difluoromethyl)-1,3,4-thiadiazol-2-yl)-8-(4-isobutyrylpiperazin-1-yl)-N-(3-methyloxetan-3-yl)imidazo[1,5-a]pyridine-6-sulfonamide-1-d]	1.12	< 100	< 100	0.46	5.19 (≈ 2.89 µg/mL)	17.4 (≈ 9.69 µg/mL)	–	–
CN(C)C(=O)N1CCN(c2cc(S(=O)(=O)NC3(C#N)CC3)cn3c(-c4nnc(C(F)(F)F)s4)ncc23)CC1 [Example 227, 4-(6-(N-(1-cyanocyclopropyl)sulfamoyl)-3-(5-(trifluoromethyl)-1,3,4-thiadiazol-2-yl)imidazo[1,5-a]pyridin-8-yl)-N,N-dimethylpiperazine-1-carboxamide]	–	–	–	5.01	73.8 (≈ 42 µg/mL)	82.4 (≈ 46.9 µg/mL)	–	300
CC1(C(=O)N2CCN(c3cc(S(=O)(=O)NC4(C#N)CC4)cn4c(-c5nnc(C(F)(F)F)s5)ncc34)CC2)CCCO1 (centres unmarked) [Example 298, N-(1-cyanocyclopropyl)-8-(4-(2-methyltetrahydrofuran-2-carbonyl)piperazin-1-yl)-3-(5-(trifluoromethyl)-1,3,4-thiadiazol-2-yl)imidazo[1,5-a]pyridine-6-sulfonamide]	–	–	–	19.1	> 100	97.7 (≈ 59.7 µg/mL)	–	175
